In ChEMBL document CHEMBL4387741, “Optimization of novel reversible Bruton's tyrosine kinase inhibitors identified using Tethering-fragment-based screens” (Bioorg Med Chem, 2019):

Tests used:
[1] = target: Mitogen-activated protein kinase kinase kinase 1 (Homo sapiens) (UniProt Q13233); assay: Inhibition of wild-type human partial length MAP3K1 (L1202 to W1512 residues) expressed in mammalian expression system at 1 uM by Kinomescan method relative to control
[2] = target: Inhibitor of nuclear factor kappa-B kinase subunit alpha (Homo sapiens) (UniProt O15111); assay: Inhibition of wild-type human full length IKK-alpha (M1 to E745 residues) expressed in mammalian expression system at 1 uM by Kinomescan method relative to control
Sequence of Inhibitor of nuclear factor kappa-B kinase subunit alpha (Homo sapiens) (O15111 whole entry, the tested form may be a part): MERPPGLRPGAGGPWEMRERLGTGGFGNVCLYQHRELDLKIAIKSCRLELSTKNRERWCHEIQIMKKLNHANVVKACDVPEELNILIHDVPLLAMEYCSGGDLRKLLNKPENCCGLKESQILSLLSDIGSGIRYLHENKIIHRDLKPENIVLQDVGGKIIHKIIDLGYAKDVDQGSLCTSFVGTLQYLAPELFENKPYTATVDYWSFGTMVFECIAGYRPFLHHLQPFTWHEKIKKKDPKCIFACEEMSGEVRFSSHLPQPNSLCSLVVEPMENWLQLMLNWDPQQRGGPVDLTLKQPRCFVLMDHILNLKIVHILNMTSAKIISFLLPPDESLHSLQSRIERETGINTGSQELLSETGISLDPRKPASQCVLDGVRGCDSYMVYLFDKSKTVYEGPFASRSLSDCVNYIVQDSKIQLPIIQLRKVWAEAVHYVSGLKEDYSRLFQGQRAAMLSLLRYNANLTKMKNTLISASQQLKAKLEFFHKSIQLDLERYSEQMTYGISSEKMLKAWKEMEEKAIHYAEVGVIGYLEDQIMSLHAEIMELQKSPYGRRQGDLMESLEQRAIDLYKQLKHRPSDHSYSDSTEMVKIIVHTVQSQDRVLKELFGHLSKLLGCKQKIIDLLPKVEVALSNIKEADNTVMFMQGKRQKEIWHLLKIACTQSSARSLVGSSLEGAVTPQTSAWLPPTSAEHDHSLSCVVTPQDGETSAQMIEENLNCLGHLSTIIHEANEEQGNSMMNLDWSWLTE

[3] = target: Fibroblast growth factor receptor 2 (Homo sapiens) (UniProt P21802); assay: Inhibition of wild-type human partial length FGFR2 (D457 to E769 residues) expressed in bacterial expression system at 1 uM by Kinomescan method relative to control
[4] = target: Cyclin-dependent kinase 11B (Homo sapiens) (UniProt P21127); assay: Inhibition of wild-type human partial length CDC2L1 (P353 to G692 residues) expressed in bacterial expression system at 1 uM by Kinomescan method relative to control
[5] = target: Membrane-associated tyrosine- and threonine-specific cdc2-inhibitory kinase (Homo sapiens) (UniProt Q99640); assay: Inhibition of wild-type human partial length PKMYT1 (A88 to G366 residues) expressed in bacterial expression system at 1 uM by Kinomescan method relative to control
[6] = target: Serine/threonine-protein kinase PAK 4 (Homo sapiens) (UniProt O96013); assay: Inhibition of wild-type human partial length PAK4 (Q144 to R438 residues) expressed in bacterial expression system at 1 uM by Kinomescan method relative to control
[7] = target: Serine/threonine-protein kinase STK11 (Homo sapiens) (UniProt Q15831); assay: Inhibition of wild-type human full length LKB1 (M1 to Q433 residues) expressed in bacterial expression system at 10 uM by Kinomescan method relative to control
[8] = target: Vascular endothelial growth factor receptor 2 (Homo sapiens) (UniProt P35968); assay: Inhibition of wild-type human partial length VEGFR2 (R787 to P1253 residues) expressed in mammalian expression system at 10 uM by Kinomescan method relative to control
[9] = target: Serine/threonine-protein kinase D3 (Homo sapiens) (UniProt O94806); assay: Inhibition of wild-type human partial length PRKD3 (S543 to E863 residues) expressed in bacterial expression system at 10 uM by Kinomescan method relative to control
[10] = target: Calcium-dependent protein kinase 1 (Plasmodium falciparum) (UniProt P62344); assay: Inhibition of wild-type Plasmodium falciparum full length CDPK1 (M1 to S524 residues) expressed in mammalian expression system at 10 uM by Kinomescan method relative to control
Sequence of Calcium-dependent protein kinase 1 (Plasmodium falciparum) (P62344 2-524 limits assumed): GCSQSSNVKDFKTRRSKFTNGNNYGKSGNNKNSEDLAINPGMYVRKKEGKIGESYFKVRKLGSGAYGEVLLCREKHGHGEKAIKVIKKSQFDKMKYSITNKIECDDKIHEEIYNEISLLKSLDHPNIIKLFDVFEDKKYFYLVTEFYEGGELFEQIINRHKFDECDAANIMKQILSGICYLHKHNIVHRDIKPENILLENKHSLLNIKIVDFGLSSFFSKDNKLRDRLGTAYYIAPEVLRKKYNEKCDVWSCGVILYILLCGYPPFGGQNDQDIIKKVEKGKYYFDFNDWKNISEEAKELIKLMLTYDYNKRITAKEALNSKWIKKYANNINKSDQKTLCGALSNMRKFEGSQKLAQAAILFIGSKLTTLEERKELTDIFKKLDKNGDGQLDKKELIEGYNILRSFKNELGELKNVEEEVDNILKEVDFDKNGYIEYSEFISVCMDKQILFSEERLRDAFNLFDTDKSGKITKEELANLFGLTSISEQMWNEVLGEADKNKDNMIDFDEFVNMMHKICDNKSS

[11] = target: Mitogen-activated protein kinase 12 (Homo sapiens) (UniProt P53778); assay: Inhibition of wild-type human full length p38-gamma (M1 to L367 residues) expressed in mammalian expression system at 10 uM by Kinomescan method relative to control
Sequence of Mitogen-activated protein kinase 12 (Homo sapiens) (P53778 whole entry, the tested form may be a part): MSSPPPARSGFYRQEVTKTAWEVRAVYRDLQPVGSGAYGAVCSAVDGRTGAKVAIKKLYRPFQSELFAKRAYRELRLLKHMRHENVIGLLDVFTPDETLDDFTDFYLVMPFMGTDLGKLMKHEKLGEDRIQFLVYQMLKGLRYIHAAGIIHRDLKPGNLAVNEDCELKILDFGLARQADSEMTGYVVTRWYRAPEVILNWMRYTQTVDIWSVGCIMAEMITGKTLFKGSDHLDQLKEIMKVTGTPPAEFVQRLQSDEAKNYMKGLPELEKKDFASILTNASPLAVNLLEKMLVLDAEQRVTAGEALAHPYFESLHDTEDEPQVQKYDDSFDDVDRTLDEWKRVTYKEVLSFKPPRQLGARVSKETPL

[12] = target: Calcium/calmodulin-dependent protein kinase kinase 1 (Homo sapiens) (UniProt Q8N5S9); assay: Inhibition of wild-type human partial length CAMKK1 (R65 to E414 residues) expressed in bacterial expression system at 10 uM by Kinomescan method relative to control
Sequence of Calcium/calmodulin-dependent protein kinase kinase 1 (Homo sapiens) (Q8N5S9 whole entry, looked up, the tested form may be a part): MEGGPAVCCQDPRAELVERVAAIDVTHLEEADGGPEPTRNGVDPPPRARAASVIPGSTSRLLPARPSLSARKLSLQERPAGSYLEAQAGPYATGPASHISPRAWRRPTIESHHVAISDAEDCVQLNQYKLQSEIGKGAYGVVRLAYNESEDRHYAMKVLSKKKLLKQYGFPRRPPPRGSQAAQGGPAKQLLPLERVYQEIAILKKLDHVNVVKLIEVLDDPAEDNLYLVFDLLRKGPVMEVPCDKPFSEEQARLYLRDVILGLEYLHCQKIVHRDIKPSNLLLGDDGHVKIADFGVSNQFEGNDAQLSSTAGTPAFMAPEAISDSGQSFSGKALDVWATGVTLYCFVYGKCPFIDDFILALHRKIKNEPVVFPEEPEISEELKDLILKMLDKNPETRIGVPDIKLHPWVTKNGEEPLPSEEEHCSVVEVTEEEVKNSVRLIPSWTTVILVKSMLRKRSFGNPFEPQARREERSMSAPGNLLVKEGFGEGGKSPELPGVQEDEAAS

[13] = target: Hepatocyte growth factor receptor (Homo sapiens) (UniProt P08581); assay: Inhibition of wild-type human partial length MET (D1010 to S1367 residues) expressed in bacterial expression system at 10 uM by Kinomescan method relative to control
Sequence of Hepatocyte growth factor receptor (Homo sapiens) (P08581 whole entry, the tested form may be a part): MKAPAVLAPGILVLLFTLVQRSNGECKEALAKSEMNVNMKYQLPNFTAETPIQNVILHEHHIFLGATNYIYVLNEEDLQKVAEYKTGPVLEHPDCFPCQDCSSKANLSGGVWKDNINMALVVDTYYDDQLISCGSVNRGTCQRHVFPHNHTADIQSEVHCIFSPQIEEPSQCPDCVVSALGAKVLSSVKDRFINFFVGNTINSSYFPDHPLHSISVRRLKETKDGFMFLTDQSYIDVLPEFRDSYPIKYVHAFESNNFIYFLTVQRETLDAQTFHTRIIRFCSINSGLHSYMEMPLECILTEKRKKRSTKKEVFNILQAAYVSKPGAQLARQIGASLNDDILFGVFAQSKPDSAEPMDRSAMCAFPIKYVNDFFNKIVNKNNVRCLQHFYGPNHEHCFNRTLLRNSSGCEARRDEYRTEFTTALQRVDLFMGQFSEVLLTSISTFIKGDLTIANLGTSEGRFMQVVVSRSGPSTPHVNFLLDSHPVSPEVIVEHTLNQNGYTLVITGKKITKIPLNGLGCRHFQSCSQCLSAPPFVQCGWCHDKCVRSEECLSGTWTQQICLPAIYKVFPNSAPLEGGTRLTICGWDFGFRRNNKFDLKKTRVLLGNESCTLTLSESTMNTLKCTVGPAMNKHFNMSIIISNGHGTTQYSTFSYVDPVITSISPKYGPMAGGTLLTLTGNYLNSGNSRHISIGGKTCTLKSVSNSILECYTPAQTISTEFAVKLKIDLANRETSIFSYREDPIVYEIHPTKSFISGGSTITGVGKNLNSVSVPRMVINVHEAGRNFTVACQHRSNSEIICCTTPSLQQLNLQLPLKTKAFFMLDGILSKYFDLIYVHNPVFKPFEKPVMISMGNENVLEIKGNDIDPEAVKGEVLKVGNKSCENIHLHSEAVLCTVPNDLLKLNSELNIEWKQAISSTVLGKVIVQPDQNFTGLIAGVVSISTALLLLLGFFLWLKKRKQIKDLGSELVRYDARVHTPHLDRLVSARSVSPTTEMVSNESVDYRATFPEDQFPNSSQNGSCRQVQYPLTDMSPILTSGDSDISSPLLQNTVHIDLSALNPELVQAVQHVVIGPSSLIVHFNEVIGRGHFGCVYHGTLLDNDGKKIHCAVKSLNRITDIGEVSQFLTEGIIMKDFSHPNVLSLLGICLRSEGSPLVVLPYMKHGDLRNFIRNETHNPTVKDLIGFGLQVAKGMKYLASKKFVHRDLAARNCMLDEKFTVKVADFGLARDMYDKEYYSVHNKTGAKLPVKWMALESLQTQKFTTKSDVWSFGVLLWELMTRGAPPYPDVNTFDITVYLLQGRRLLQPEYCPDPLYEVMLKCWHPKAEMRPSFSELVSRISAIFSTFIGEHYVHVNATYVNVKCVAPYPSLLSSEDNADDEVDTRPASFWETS

[14] = target: Serine/threonine-protein kinase DCLK1 (Homo sapiens) (UniProt O15075); assay: Inhibition of wild-type human partial length DCAMKL1 (L270 to A662 residues) expressed in mammalian expression system at 10 uM by Kinomescan method relative to control

Sequence of Mitogen-activated protein kinase kinase kinase 1 (Homo sapiens) (Q13233 whole entry, the tested form may be a part): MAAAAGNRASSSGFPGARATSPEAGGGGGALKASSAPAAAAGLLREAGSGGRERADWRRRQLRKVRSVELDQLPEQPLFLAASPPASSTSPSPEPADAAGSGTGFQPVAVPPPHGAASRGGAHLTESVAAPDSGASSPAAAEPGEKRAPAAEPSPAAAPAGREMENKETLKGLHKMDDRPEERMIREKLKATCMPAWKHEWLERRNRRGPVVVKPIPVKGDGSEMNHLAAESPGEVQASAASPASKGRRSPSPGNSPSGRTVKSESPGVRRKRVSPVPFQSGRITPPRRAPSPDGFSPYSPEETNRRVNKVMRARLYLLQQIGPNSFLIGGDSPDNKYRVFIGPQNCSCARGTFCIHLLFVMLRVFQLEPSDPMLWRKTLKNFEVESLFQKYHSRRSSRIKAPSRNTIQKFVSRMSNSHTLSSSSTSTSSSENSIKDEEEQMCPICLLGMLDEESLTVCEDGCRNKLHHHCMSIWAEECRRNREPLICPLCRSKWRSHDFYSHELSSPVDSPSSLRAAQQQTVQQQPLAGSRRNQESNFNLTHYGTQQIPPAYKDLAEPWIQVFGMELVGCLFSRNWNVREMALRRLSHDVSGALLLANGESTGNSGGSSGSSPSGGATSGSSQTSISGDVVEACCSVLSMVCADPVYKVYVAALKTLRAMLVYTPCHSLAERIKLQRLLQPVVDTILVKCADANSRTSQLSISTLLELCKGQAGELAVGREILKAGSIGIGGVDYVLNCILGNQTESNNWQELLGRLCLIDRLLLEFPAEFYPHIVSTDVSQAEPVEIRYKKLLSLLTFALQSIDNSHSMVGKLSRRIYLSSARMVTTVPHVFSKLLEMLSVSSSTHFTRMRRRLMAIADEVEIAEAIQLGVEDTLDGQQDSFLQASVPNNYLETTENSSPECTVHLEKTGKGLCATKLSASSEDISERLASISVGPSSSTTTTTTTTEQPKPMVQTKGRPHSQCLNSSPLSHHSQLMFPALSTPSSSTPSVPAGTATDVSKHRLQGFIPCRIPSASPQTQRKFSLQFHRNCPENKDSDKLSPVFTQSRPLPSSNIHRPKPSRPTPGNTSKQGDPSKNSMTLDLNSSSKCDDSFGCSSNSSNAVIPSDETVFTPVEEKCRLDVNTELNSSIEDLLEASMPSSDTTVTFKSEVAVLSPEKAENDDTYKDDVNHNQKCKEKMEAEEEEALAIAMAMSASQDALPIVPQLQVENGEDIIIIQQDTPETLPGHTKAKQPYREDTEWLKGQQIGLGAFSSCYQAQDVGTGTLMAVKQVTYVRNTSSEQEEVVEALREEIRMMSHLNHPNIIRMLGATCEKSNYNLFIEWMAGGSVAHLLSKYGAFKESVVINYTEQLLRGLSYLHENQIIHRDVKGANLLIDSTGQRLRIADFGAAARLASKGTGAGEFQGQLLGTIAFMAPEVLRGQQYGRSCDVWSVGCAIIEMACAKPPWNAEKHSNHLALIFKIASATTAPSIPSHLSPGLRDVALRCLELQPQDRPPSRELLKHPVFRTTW

SMILES | inhibition [1] [%] | inhibition [2] [%] | inhibition [3] [%] | inhibition [4] [%] | inhibition [5] [%] | inhibition [6] [%] | inhibition [7] [%] | inhibition [8] [%] | inhibition [9] [%] | inhibition [10] [%] | inhibition [11] [%] | inhibition [12] [%] | inhibition [13] [%] | inhibition [14] [%]
O=C(Nc1cccc([C@@H]2CN(c3ncnc4[nH]ccc34)CCN2CCO)c1)Nc1c(F)cccc1N1CCCC1 | 70 | 78 | 54 | 100 | 84 | 75 |  |  |  |  |  |  |  | 
O=C(Nc1cccc([C@H]2CCCN(c3ncnc4[nH]ccc34)C2)c1)Nc1ccccc1N1CCCC1 |  |  |  |  |  |  | 25 | 3.5 | 100 | 9.9 | 68 | 82 | 86 | 52
